Measurements taken from patent US20230094545A1, “S1P RECEPTOR MODULATORS” (AKAAL PHARMA PTY LTD, priority 2020, published 2023).
Where “and” joins values, the source holds several entries; their conditions need not be identical. Identical values can stand only once. Like-named read-outs stand apart in the source and are kept apart here.

Key:
[1] = 8 mg daily oral dosing for 7 days in healthy human subjects: systemic exposure, lymphocyte counts; format: in vivo
Method: One cohort (8 human subjects) was treated daily with 8 mg oral dosing for 7 consecutive days.

[2] = Topical treatment of arthritis patients with pain; format: in vivo, human; conditions: human, in vivo, topical, 60 mg daily, day 7, 60 mg daily topical
Method: (§1) Fifteen arthritis patients who were experiencing pain were treated with the compound of Formula I@60 mg daily dosing as a topical treatment for seven consecutive days. […] The subjects blood parameters, urine alysis, vital signs, physical examination, ECG were normal.
(§2) The numerical rating scale for pain scoring (NRS) in a compound of Formula I treated group […] reduced from 7.1±1.38 (Day 1; baseline) to 5.8±2.12 (Day 3) and 4.8±2.72 (Day 7). The mean NRS score change from baseline was −1.3±1.54 (Day 3) and −2.3±2.06 (Day 7) points in arthritis participants treated with compound of Formula I. In osteoarthritis participants, the mean change in pain score from Day 1 to Day 7 was of −1.9±1.46 and −1.9±1.57 for pain felt and worst pain felt in 24 hours, respectively. […] The systemic exposure on day 7 ranged from 0.42 ng/mL to 2.44 ng/mL (average 0.79 ng/mL).

arthritis pain = assay: Topical treatment of arthritis patients with pain; format: in vivo, human; conditions: for numerical rating scale for pain scoring (NRS): baseline Day 1 7.1±1.38
Method: as §1, §2

[3] = tested on: middle cerebral artery occlusion (MCAO); assay: Middle cerebral artery occlusion (MCAO) model of stroke; format: in vivo; conditions: oral 1, 3 and 5 mg/kg; ischemia 60 min, reperfusion 72 h
Method: The compound of Formula I was assessed in an animal model of stroke, namely the middle cerebral artery occlusion (MCAO) model. The effect of a compound of Formula I on infarctions (TTC staining) and BBB leakage (Evan's blue extravasation) ischemia for 60 min and reperfusion for 72 h was assessed.

[4] = Topical treatment of psoriasis patients; format: in vivo, human; conditions: human, in vivo, 30 mg daily; after topical applications, below the limit of quantification; read-out: systemic exposure
Method: (§3) Twelve psoriasis patients were treated with the compound of Formula I@30 mg daily dosing under occlusion as topical treatment for 28 consecutive days. […] The systemic exposure after topical applications was recorded below the limit of quantification (BLQ) <0.400 ng/mL.

psoriasis = assay: Topical treatment of psoriasis patients; format: in vivo, human
Method: as §3

CFA mediated pain = assay: CFA (Freund's adjuvant) mediated pain, topical treatment; format: in vivo, Sprague Dawley Rats
Source text: The total 24 female Sprague Dawley Rats were assigned to two test and two control groups having 6 animals per group. Animals from G1 and G2 received CFA on Day 1 by intraplanter route followed application of test item (0 and 3% respectively), onto injection site from Day 1 to Day 7. Group G3 and G4 animals received deep incision through the skin and fascia of the plantar foot followed by application of test item (0 and 3% respectively), onto the incision site from Day 1 to Day 7. Clinical signs, body weight and pain assessment parameters like Von Frey estimation and FOB was evaluated and the pain reduction results at Day 7 are summarized in Table 7.

[5] = Single oral dose in healthy human subjects: systemic exposure, heart rate, lymphopenia; format: in vivo; conditions: humans; for bradycardia: 0.5 mg to 12 mg single oral dose, 72 hours monitoring
Method: The observance of bradycardia with S1P1 selective agonists has been reported to be species specific.
Human subjects were treated in cohorts of different dose levels (each cohort=8 human subjects) with a compound of formula (I)@0.5 mg, 2 mg, 6 mg and 12 mg single oral dose.

[6] = tested on: LPS mediated systemic inflammation; assay: LPS-induced sepsis model; format: in vivo, Sprague-Dawley rats; conditions: 3 mg/Kg oral 1 h after LPS and every 24 h
Method: Sepsis was induced in female Sprague-Dawley rats by LPS (5 mg/kg) administration and treated orally with compound of Formula I (3 mg/Kg) 1 h after and every 24 h thereafter to determine the effect of a compound of formula (I) in this animal model of sepsis (LPS mediated systemic inflammation). Animals were sacrificed at 24 and 72h post LPS treatment.

[7] = tested on: kainic acid induced seizures; assay: Kainic acid model of epilepsy; format: in vivo, Sprague Dawley rats
Method: In an animal model of epilepsy, Sprague Dawley rats (n=6) were treated with the compound of Formula I or vehicle, dosed 1 hour prior to kainic acid administration (10 mg/kg, IP). […] There was significant reduction in seizures (70%, p<0.005) in the compound of formula (I) treated group. The changes observed in the hippocampal region of control animals included, minimal to mild neuronal cell death which included vaculations in neuronal cells particularly at C3 and C1 regions proving the compound of Formula I is neuroprotective.

mould = assay: Anti-mould (antifungal) activity on wheat flour bread; conditions: 1% ww and 3% ww water solution on bread, day 14, room temperature
Method: The compound of formula I solution as 0% ww, 1% ww and 3% ww as I mL water solution was added to a glass jar (5 mL) containing the fresh wheat flour bread (1 gm). The content was mixed well in order to wet the bread with solution. The content was kept in open glass cylinder for 14 days at room temperature and light (normal conditions) and the photos of Day 1 and Day 14 were taken (FIGS. 5A and B respectively). […] The mould is common in many skin indications and other human, animal and plant diseases. For example, Rhizopus stolonifera.

[8] = individual healthy human subjects, 8 mg oral daily for 7 days, listed as compound of formula (1)

Structure (SMILES): CCCOc1ccc(-c2nc(-c3ccc4oc(C(N)(CO)CO)cc4c3)no2)cc1Cl [compound of formula (I)]
- bradycardia and lymphopenia ([1]; 2 g daily topical 3% ww for 3 weeks and oral 8 mg daily for one week): without event of bradycardia and significant lymphopenia
- concentration at 7 days ([1]; human, in vivo, po, 8 mg daily, humans, 8 mg oral daily for 7 days): ~53 ng/mL
- measured lymphopenia ([1]; humans, 8 mg daily dosing for one week): up to 40%
- lymphopenia ([1]; humans, 8 mg oral daily for 7 consecutive days): mild lymphopenia
- systemic exposure (mean / average) ([1]; humans, 8 mg oral daily for 7 days): 53.3 ng/mL
- ALC Change (%) [1, 8]: −33.33% and −27.66% and −35.71% and 0% and +40% and −22.58% and −15.56% and −20%
- CD3 Change (%) [1, 8]: −18.75% and −30.32% and −30.58% and −0.6% and −12.58% and −5.77% and −12.36% and −11.86%
- CD4 Change (%) [1, 8]: −22.41% and −33.62% and −32% and −5.2% and −10.91% and −8.21% and −25.3% and −7.87%
- CD8 Change (%) [1, 8]: −19.05% and −27.87% and −31.74% and −1.67% and −13.79% and 0% and −7.06% and −11.86%
- concentration at 7 day ([2]; read-out: systemic exposure, average): 0.79 ng/mL
- concentration at 7 day ([2]; read-out: systemic exposure, range): 0.42 to 2.44 ng/mL
- absolute lymphocyte count (arthritis pain; 60 mg daily topical, 7 days): no systemic change in the absolute lymphocyte count
- safety and tolerability (arthritis pain; 60 mg daily topical, seven days): safe and well tolerated
- mean NRS score change from baseline (arthritis pain; Day 3): −1.3±1.54 points
- numerical rating scale for pain scoring (NRS) (arthritis pain; Day 3): 5.8±2.12
- mean NRS score change from baseline (arthritis pain; Day 7): −2.3±2.06 points
- numerical rating scale for pain scoring (NRS) (arthritis pain; Day 7): 4.8±2.72
- positive PGART response (arthritis pain; all treated participants (n=12), Day 3, 60 mg daily topical): 41.7 % participants
- positive PGART response (arthritis pain; all treated participants (n=12), Day 7, 60 mg daily topical): 58.3 % participants
- mean change in pain score, pain felt (arthritis pain; osteoarthritis participants, Day 1 to Day 7, p=0.0153): −1.9±1.46
- mean change in pain score, worst pain felt in 24 hours (arthritis pain; osteoarthritis participants, Day 1 to Day 7, p=0.0205): −1.9±1.57
- positive PGART response (arthritis pain; participants with osteoarthritis, Day 3): 28.6 % participants
- positive PGART response (arthritis pain; participants with osteoarthritis, Day 7): 57.1 % participants
- infarct volume, infarct area, sensory motor function, blood brain barrier leakage [3]: significantly reduced the infarct volume, infract area and sensory motor function and blood brain barrier leakage
- concentration at 28 days [4]: < 0.4 ng/mL
- absolute lymphocyte count (psoriasis; 30 mg daily topical, 28 days): no systemic change in the absolute lymphocyte count
- tolerability (psoriasis; 30 mg daily topical, 28 days): well tolerated
- local psoriasis severity index (LPSI) score (psoriasis; day 28, from 5.8 (day 1), 30 mg daily topical under occlusion, p<0.0016): −2.1
- plaque area (psoriasis; some subjects, image analysis): reduction in plaque area
- Pain reduction results at Day 7, CFA mediated pain (CFA mediated pain; 3% (G2), Placebo (G1) 0.17): 0.00
- pain relief (CFA mediated pain; 3% topical Day 1 to Day 7, day 7): complete pain relief
- systemic exposure ([5]; 0.5 mg single oral dose): 0.6 ng/mL
- bradycardia [5]: no bradycardia events
- bradycardia ([5]; listed as S1P1 receptor modulator of formula (I)): did not induce bradycardia
- bradycardia ([5]; listed as compound of Formula I): no dose proportional or dose relevant bradycardia event
- systemic exposure ([5]; 2 mg single oral dose): 2.4 ng/mL
- systemic exposure ([5]; 6 mg single oral dose): 7.1 ng/mL
- systemic exposure ([5]; 12 mg single oral dose): 18.8 ng/mL
- lymphopenia ([5]; dose of ~0.17 mg/kg): no induction of significant lymphopenia
- systemic exposure ([5]; dose of ~0.17 mg/kg): 18.8 ng/mL
- body temperature and organ histopathology [6]: positive impact on the body temperature and organ histopathology
- reduction in seizures ([7]; dosed 1 hour prior to kainic acid, p<0.005): 70%
- neuroprotection (hippocampal histology) ([7]; rat, in vivo): neuroprotective
- mould growth (mould): preventing mould growth at day 14
